Experimental findings from PubChem BioAssay AID248 (DTP/NCI, 2004) are described below.

Molecules are shown by their SMILES. Inconclusive results and toxic doses are left out.

For this test, the system named is L1210 leukemia ip in BDF1 mice, survival T/C. The experiment in a line: NCI In Vivo Anticancer Drug Screen. Data for tumor model L1210 Leukemia (intraperitoneal) in B6D2F1 (BDF1) mice. As to conditions: endpoint: mean survival time, higher = longer survival. Summed up: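 Antitumor effect is assessed in tumor-bearing animals. Survival in the compound arm is compared with a vehicle-dosed control arm and expressed as their quotient.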

Where [1] appears, read: dose: 100.0 mg/kg/injection, schedule: Q04DX003 (ip), vehicle: saline with Tween-80.
The mark [2] stands for this setting: dose: 200.0 mg/kg/injection, schedule: Q04DX003 (ip), vehicle: saline with Tween-80.
[3] abbreviates: dose: 400.0 mg/kg/injection, schedule: Q04DX003 (ip), vehicle: saline with Tween-80.

As for `COC(=O)c1ccc2oc(=O)cc(C)c2c1O`, the T/C (dose: 100.0 mg/kg/injection, schedule: Q01DX009 (ip), vehicle: saline with Tween-80) was 95 % of control; the T/C under setting [1] is 93 % of control; the T/C (dose: 200.0 mg/kg/injection, schedule: Q01DX009 (ip), vehicle: saline with Tween-80) was 100 % of control; the T/C under setting [2] was 95 % of control; the T/C (dose: 400.0 mg/kg/injection, schedule: Q01DX009 (ip), vehicle: saline with Tween-80) was 94 % of control; the T/C under setting [3] was 93 % of control.

Take `CCN(CC)C(C)COC(=O)c1ccc(N)cc1` (stereo not given): the T/C is 101 % of control (dose: 12.5 mg/kg/injection, schedule: Q01DX009 (ip), vehicle: saline); 101 % of control (dose: 25.0 mg/kg/injection, schedule: Q01DX009 (ip), vehicle: saline); 95 % of control (dose: 50.0 mg/kg/injection, schedule: Q01DX009 (ip), vehicle: saline).

Regarding `NNC(=O)C1C2C=CC(C2)C1C(=O)NN` (stereo not given), the T/C under setting [1] is 103 % of control, the T/C under setting [2] is 91 % of control and the T/C under setting [3] was 100 % of control.

`CN=C(N)c1ccc(NC(=O)/C=C\c2ccc(/C=C/C(=O)Nc3ccc(C(N)=NC)cc3)cc2)cc1`: the T/C was 121 % of control (dose: 15.0 mg/kg/injection, schedule: Q01DX Z (ip), vehicle: saline); 100 % of control (dose: 60.0 mg/kg/injection, schedule: Q01DX Z (oral), vehicle: saline); 179 % of control (dose: 120.0 mg/kg/injection, schedule: Q01DX Z (ip), vehicle: saline); 100 % of control (dose: 120.0 mg/kg/injection, schedule: Q01DX Z (oral), vehicle: saline); 101 % of control (dose: 240.0 mg/kg/injection, schedule: Q01DX Z (oral), vehicle: saline); 95 % of control (dose: 480.0 mg/kg/injection, schedule: Q01DX Z (oral), vehicle: saline).

As to `Nc1ccnc(C(F)(F)F)n1`, the T/C is, setting by setting: (dose: 50.0 mg/kg/injection, schedule: Q01DX Z (ip), vehicle: methylcellulose (MC)) 93 % of control; (dose: 100.0 mg/kg/injection, schedule: Q01DX Z (ip), vehicle: methylcellulose (MC)) 90 % of control.

With `Fc1ccc(NC(=S)N/N=C\c2ccc(Cl)cc2Cl)cc1`, the T/C by setting is: (dose: 60.0 mg/kg/injection, schedule: Q01DX Z (oral), vehicle: methylcellulose (MC)) 103 % of control; (dose: 120.0 mg/kg/injection, schedule: Q01DX Z (oral), vehicle: methylcellulose (MC)) 89 % of control; (dose: 240.0 mg/kg/injection, schedule: Q01DX Z (ip), vehicle: methylcellulose (MC)) 89 % of control; (dose: 240.0 mg/kg/injection, schedule: Q01DX Z (oral), vehicle: methylcellulose (MC)) 93 % of control; (dose: 480.0 mg/kg/injection, schedule: Q01DX Z (oral), vehicle: methylcellulose (MC)) 95 % of control.

With `CC(=O)OCC1OC(n2cnc3c(=O)[nH]nnc32)C(OC(C)=O)C1OC(C)=O` (stereo not given), the T/C is 96 % of control (dose: 100.0 mg/kg/injection, schedule: Q01DX005 (ip), vehicle: saline); 94 % of control (dose: 100.0 mg/kg/injection, schedule: Q01DX009 (ip), vehicle: saline); 104 % of control (dose: 200.0 mg/kg/injection, schedule: Q01DX005 (ip), vehicle: saline); 92 % of control (dose: 200.0 mg/kg/injection, schedule: Q01DX009 (ip), vehicle: saline); 99 % of control (dose: 400.0 mg/kg/injection, schedule: Q01DX009 (ip), vehicle: saline).

As to `CC(C)(C)c1ccc(S(=O)(=O)C/C=C/COc2ccccc2)cc1`, the T/C reads like this: (dose: 75.0 mg/kg/injection, schedule: Q01DX009 (ip), vehicle: Klucel (hydroxypropylcellulose) (HPC)) 91 % of control; (dose: 150.0 mg/kg/injection, schedule: Q01DX009 (ip), vehicle: Klucel (hydroxypropylcellulose) (HPC)) 98 % of control.

With `C[C@]12CCC(=O)C=C1CC[C@@H]1[C@@H]2[C@@H](O)C[C@@]2(C)[C@H]1CC[C@]2(O)C(=O)COC(=O)CCC(=O)O`, the T/C runs as follows: (dose: 50.0 mg/kg/injection, schedule: Q01DX001 (sc), vehicle: steriod suspending solution) 107 % of control; (dose: 100.0 mg/kg/injection, schedule: Q01DX001 (sc), vehicle: steriod suspending solution) 104 % of control; (dose: 100.0 mg/kg/injection, schedule: Q01DX009 (ip), vehicle: steriod suspending solution) 108 % of control; (dose: 100.0 mg/kg/injection, schedule: Q04DX003 (sc), vehicle: steriod suspending solution) 100 % of control; (dose: 200.0 mg/kg/injection, schedule: Q01DX001 (sc), vehicle: steriod suspending solution) 105 % of control; (dose: 200.0 mg/kg/injection, schedule: Q01DX009 (ip), vehicle: steriod suspending solution) 101 % of control. Further, the T/C (dose: 200.0 mg/kg/injection, schedule: Q04DX003 (sc), vehicle: steriod suspending solution) is 96 % of control; the T/C (dose: 400.0 mg/kg/injection, schedule: Q01DX001 (sc), vehicle: steriod suspending solution) is 94 % of control; the T/C (dose: 400.0 mg/kg/injection, schedule: Q01DX009 (ip), vehicle: steriod suspending solution) is 103 % of control; the T/C (dose: 400.0 mg/kg/injection, schedule: Q04DX003 (sc), vehicle: steriod suspending solution) was 102 % of control.

Consider `CCOC(=O)/C(C)=C\C1C(C)=CC(=O)CC1(C)C` (stereo not given), for which the T/C by setting is: (dose: 100.0 mg/kg/injection, schedule: Q04DX003 (ip), vehicle: Klucel (hydroxypropylcellulose) (HPC)) 102 % of control; (dose: 200.0 mg/kg/injection, schedule: Q04DX003 (ip), vehicle: Klucel (hydroxypropylcellulose) (HPC)) 95 % of control; (dose: 400.0 mg/kg/injection, schedule: Q04DX003 (ip), vehicle: Klucel (hydroxypropylcellulose) (HPC)) 100 % of control.
